# In ChEMBL document CHEMBL1201862, “PubChem BioAssay data set” (2004):
#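 Exposure lasted 48 hours, with cells grown in 96-well plates and compounds tested at five concentrations. GI50 marks 50% less growth.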 Activity calls are given as the source filed them. Cut-off read from the data, not from the text of the source: active = GI50 up to about 1.1 µM and inactive = higher.
# Columns and labels:
# Assay in all cases: growth of human tumour cells (NCI), 48 h
# CAKI-1 = tested on: CAKI-1
# COLO 205 = tested on: COLO 205
# EKVX = tested on: EKVX
# HCT-116 = tested on: HCT-116
# HCT-15 = tested on: HCT-15
# HT-29 = tested on: HT-29
# IGROV-1 = tested on: IGROV-1
# MDA-MB-435 = tested on: MDA-MB-435
# NCI-H522 = tested on: NCI-H522
# NCI/ADR-RES = tested on: NCI/ADR-RES
# OVCAR-4 = tested on: OVCAR-4
# PC-3 = tested on: PC-3
# SF-295 = tested on: SF-295
# SK-MEL-28 = tested on: SK-MEL-28
# SK-MEL-5 = tested on: SK-MEL-5
# SW-620 = tested on: SW-620
# UACC-257 = tested on: UACC-257
# Malme-3M = tested on: Malme-3M
# MDA-MB-231 = tested on: MDA-MB-231
# A498 = tested on: A498
SMILES,GI50 (CAKI-1),GI50 (COLO 205),GI50 (EKVX),GI50 (HCT-116),GI50 (HCT-15),GI50 (HT-29),GI50 (IGROV-1),GI50 (MDA-MB-435),GI50 (NCI-H522),GI50 (NCI/ADR-RES),GI50 (OVCAR-4),GI50 (PC-3),GI50 (SF-295),GI50 (SK-MEL-28),GI50 (SK-MEL-5),GI50 (SW-620),GI50 (UACC-257),GI50 (Malme-3M),GI50 (MDA-MB-231),GI50 (A498)
C/N=C(\N)N/N=C(\C)c1ccc2oc3ccc(/C(C)=N/N/C(N)=N/C)cc3c2c1,19.4 µM (inactive),3.27 µM (inactive),4.24 µM (inactive),2.79 µM (inactive),> 23 µM,1.73 µM (inactive),2.24 µM (inactive),2.92 µM (inactive),1.67 µM (inactive),> 39.1 µM (inactive),3.8 µM (inactive),3.01 µM (inactive),3.85 µM (inactive),3.93 µM (inactive),2.62 µM (inactive),2.22 µM (inactive),25.6 µM (inactive),–,–,–
Oc1c(Cl)c(Cl)c(O)c(CCNc2ccc3ncccc3c2)c1Cl,12.6 µM (inactive),6.55 µM (inactive),16.7 µM (inactive),14.5 µM (inactive),14.9 µM,30.1 µM (inactive),5 µM (inactive),5.2 µM (inactive),2.17 µM (inactive),12.2 µM (inactive),79.6 µM (inactive),28 µM (inactive),11.4 µM (inactive),24.5 µM (inactive),1.88 µM (inactive),4.63 µM (inactive),17.9 µM (inactive),18.6 µM (inactive),–,–
Cc1nc(Cc2n[nH]c(C)n2)n[nH]1,–,> 100 µM (inactive),> 100 µM (inactive),> 100 µM (inactive),> 100 µM,> 100 µM (inactive),> 100 µM (inactive),> 100 µM (inactive),> 100 µM (inactive),> 100 µM (inactive),> 100 µM (inactive),> 100 µM (inactive),> 100 µM (inactive),–,> 100 µM (inactive),> 100 µM (inactive),> 100 µM (inactive),–,> 100 µM (inactive),–
N#CC1CC2(CCN1C(=O)c1ccccc1)OCCO2 (configuration not stated),> 100 µM (inactive),> 100 µM (inactive),> 100 µM (inactive),> 100 µM (inactive),> 100 µM,> 100 µM (inactive),> 100 µM (inactive),–,0.308 µM (active),–,> 100 µM (inactive),–,> 100 µM (inactive),–,> 100 µM (inactive),> 100 µM (inactive),> 100 µM (inactive),> 100 µM (inactive),–,> 100 µM (inactive)
CNC(=O)OCc1nc(SSc2nc(COC(=O)NC)c(COC(=O)NC)n2C)n(C)c1COC(=O)NC,> 100 µM (inactive),> 100 µM (inactive),> 100 µM (inactive),> 100 µM (inactive),> 100 µM,> 100 µM (inactive),> 100 µM (inactive),–,> 100 µM (inactive),–,> 100 µM (inactive),–,> 100 µM (inactive),> 100 µM (inactive),> 100 µM (inactive),> 100 µM (inactive),> 100 µM (inactive),> 100 µM (inactive),–,> 100 µM (inactive)
Cc1ccccc1Nc1cn(CCOc2ccccc2)c(=O)n(CCOc2ccccc2)c1=O,> 100 µM (inactive),96.2 µM (inactive),> 100 µM (inactive),> 100 µM (inactive),> 100 µM,> 100 µM (inactive),> 100 µM (inactive),> 100 µM (inactive),12.5 µM (inactive),> 100 µM (inactive),58.7 µM (inactive),> 100 µM (inactive),> 100 µM (inactive),> 100 µM (inactive),> 100 µM (inactive),> 100 µM (inactive),> 100 µM (inactive),3.33 µM (inactive),–,> 100 µM (inactive)
CCN(CC)CCCC(C)Nc1c(Sc2cnc3cc(Cl)ccc3c2NC(C)CCCN(CC)CC)cnc2cc(Cl)ccc12 (configuration not stated),1.53 µM (inactive),1.46 µM (inactive),–,1.37 µM (inactive),1.72 µM,1.65 µM (inactive),1.87 µM (inactive),–,1.73 µM (inactive),–,1.73 µM (inactive),–,–,1.86 µM (inactive),–,1.58 µM (inactive),2.03 µM (inactive),2.13 µM (inactive),–,1.85 µM (inactive)
N#COc1ccc(Oc2ccccc2)cc1,77.6 µM (inactive),64 µM (inactive),> 100 µM (inactive),61.7 µM (inactive),57.7 µM,72.4 µM (inactive),68.4 µM (inactive),–,34.7 µM (inactive),–,> 100 µM (inactive),–,59.8 µM (inactive),> 100 µM (inactive),46.6 µM (inactive),–,> 100 µM (inactive),> 100 µM (inactive),–,> 100 µM (inactive)
CC(=O)OC1(C#N)CC2OC1C1C2N1C(=O)OC(C)(C)C (configuration not stated),> 100 µM (inactive),> 100 µM (inactive),> 100 µM (inactive),> 100 µM (inactive),> 100 µM,–,> 100 µM (inactive),–,> 100 µM (inactive),–,> 100 µM (inactive),–,–,> 100 µM (inactive),> 100 µM (inactive),> 100 µM (inactive),–,> 100 µM (inactive),–,> 100 µM (inactive)
COc1cc(C(SCc2ccccc2)SCc2ccccc2)ccc1O,> 10 µM (inactive),> 10 µM (inactive),> 10 µM (inactive),7.41 µM (inactive),> 10 µM,> 10 µM (inactive),> 10 µM (inactive),–,> 10 µM (inactive),> 10 µM (inactive),–,> 10 µM (inactive),> 10 µM (inactive),> 10 µM (inactive),> 10 µM (inactive),> 10 µM (inactive),–,> 10 µM (inactive),> 10 µM (inactive),> 10 µM (inactive)
O=C(c1c(O)cc(O)cc1O)C1Cc2ccccc21 (configuration not stated),39.5 µM (inactive),> 100 µM (inactive),–,86.5 µM (inactive),> 100 µM,> 100 µM (inactive),> 100 µM (inactive),–,10.3 µM (inactive),–,30.4 µM (inactive),–,42.3 µM (inactive),–,> 100 µM (inactive),> 100 µM (inactive),> 100 µM (inactive),> 100 µM (inactive),–,> 100 µM (inactive)
COc1ccc(C(=O)/C=C/c2ccc3c(c2)OCO3)c(OCc2ccccc2)c1,11.8 µM (inactive),> 75.5 µM (inactive),29.8 µM (inactive),6.79 µM (inactive),5.08 µM,6.78 µM (inactive),17.7 µM (inactive),25.5 µM (inactive),9.68 µM (inactive),–,15.1 µM (inactive),11.6 µM (inactive),> 61.8 µM (inactive),> 100 µM (inactive),25.6 µM (inactive),8.71 µM (inactive),> 63 µM (inactive),> 100 µM (inactive),> 70.1 µM (inactive),> 84.9 µM (inactive)
CC1=C(C(=O)OCCc2ccc([N+](=O)[O-])cc2)C(c2ccccc2C(F)(F)F)C(C(=O)OC(C)C)=C(C)N1 (configuration not stated),2.9 µM (inactive),2.97 µM (inactive),2.05 µM (inactive),2.92 µM (inactive),3.78 µM,10.1 µM (inactive),4.88 µM (inactive),3.84 µM (inactive),3.31 µM (inactive),2.75 µM (inactive),38 µM (inactive),1.98 µM (inactive),2.68 µM (inactive),4.89 µM (inactive),1.64 µM (inactive),3.68 µM (inactive),3.86 µM (inactive),3.49 µM (inactive),3.79 µM (inactive),–
O=C(Cc1nc2ccccc2s1)Nc1ccc(Cl)cc1,> 100 µM (inactive),> 100 µM (inactive),> 100 µM (inactive),> 100 µM (inactive),–,> 100 µM (inactive),> 100 µM (inactive),–,> 100 µM (inactive),–,> 100 µM (inactive),–,55.6 µM (inactive),> 100 µM (inactive),83.8 µM (inactive),> 100 µM (inactive),> 100 µM (inactive),> 100 µM (inactive),–,> 100 µM (inactive)
CCN(CC)C(=C(C(Cl)=C(Cl)Cl)[N+](=O)[O-])N(CC)CC,34.8 µM (inactive),> 100 µM (inactive),> 100 µM (inactive),87.7 µM (inactive),62.2 µM,> 100 µM (inactive),47.1 µM (inactive),–,–,54 µM (inactive),> 100 µM (inactive),> 100 µM (inactive),> 100 µM (inactive),49.1 µM (inactive),> 100 µM (inactive),85.9 µM (inactive),54.6 µM (inactive),19.6 µM (inactive),> 100 µM (inactive),> 100 µM (inactive)
C=CCCCCCCC#CCCCCCCCCCC[C@@H]1C(=O)O[C@H](C)[C@@H]1O.CCCCCCCCC#CCCCCCCCCCC[C@@H]1C(=O)O[C@H](C)[C@@H]1O,15.5 µM (inactive),24.8 µM (inactive),16.8 µM (inactive),16.2 µM (inactive),20.2 µM,–,15.7 µM (inactive),–,5.32 µM (inactive),9.59 µM (inactive),16.4 µM (inactive),13.1 µM (inactive),18.8 µM (inactive),24 µM (inactive),13.3 µM (inactive),15.2 µM (inactive),8.45 µM (inactive),17.5 µM (inactive),23.6 µM (inactive),55.3 µM (inactive)
O=C(Nc1c(O)[nH]c(=S)[nH]c1=O)c1ccccn1,> 100 µM (inactive),> 100 µM (inactive),–,> 100 µM (inactive),> 100 µM,> 100 µM (inactive),> 100 µM (inactive),–,> 100 µM (inactive),–,> 100 µM (inactive),–,> 100 µM (inactive),> 100 µM (inactive),> 100 µM (inactive),> 100 µM (inactive),> 100 µM (inactive),> 100 µM (inactive),–,> 100 µM (inactive)
